The record followed here is ChEMBL document CHEMBL1773063, “Aromatic radiofluorination and biological evaluation of 2-aryl-6-[18F]fluorobenzothiazoles as a potential positron emission tomography imaging probe for β-amyloid plaques” (Bioorg Med Chem, 2011).

In data set [1] the test system is Blood. Particulars: mouse, in vivo, iv, 1 h.
Description: Biodistribution in ICR mouse blood at 1.1 MBq, iv after 60 mins postinjection
Data set [2] deals with Blood. The conditions noted are these: mouse, in vivo, iv, 0.5 h.
Description: Biodistribution in ICR mouse blood at 1.1 MBq, iv after 30 mins postinjection
Data set [3] concerns Blood. Particulars: mouse, in vivo, iv, 2 min.
Description: Biodistribution in ICR mouse blood at 1.1 MBq, iv after 2 mins postinjection
Data set [4] concerns Cerebellum. The conditions noted are these: mouse, in vivo, iv, 1 h.
Description: Biodistribution in ICR mouse cerebellum at 1.1 MBq, iv after 60 mins postinjection
Data set [5] concerns Cerebellum. Particulars: mouse, in vivo, iv, 0.5 h.
Description: Biodistribution in ICR mouse cerebellum at 1.1 MBq, iv after 30 mins postinjection
A short description of another data set: in vitro. Particulars: human, serum.
The subject of data set [6] is Cerebellum. Particulars: mouse, in vivo, iv, 2 min.
Description: Biodistribution in ICR mouse cerebellum at 1.1 MBq, iv after 2 mins postinjection
Data set [7] relates to Cortex. The conditions noted are these: mouse, in vivo, iv, 2 min.
Description: Biodistribution in ICR mouse cortex at 1.1 MBq, iv after 2 mins postinjection
The test system of data set [8] is Cortex. The conditions noted are these: mouse, in vivo, iv, 0.5 h.
Description: Biodistribution in ICR mouse cortex at 1.1 MBq, iv after 30 mins postinjection
For data set [9], the system named is Brain. The conditions noted are these: mouse, in vivo, iv, 2 min.
Description: Biodistribution in remaining brain of ICR mouse at 1.1 MBq, iv after 2 mins postinjection
Data set [10] concerns Cortex. The conditions noted are these: mouse, in vivo, iv, 1 h.
Description: Biodistribution in ICR mouse cortex at 1.1 MBq, iv after 60 mins postinjection
Data set [11] deals with Brain. The conditions noted are these: mouse, in vivo, iv, 0.5 h.
Description: Biodistribution in remaining brain of ICR mouse at 1.1 MBq, iv after 30 mins postinjection
The subject of data set [12] is Brain. Particulars: mouse, in vivo, iv, 1 h.
Description: Biodistribution in remaining brain of ICR mouse at 1.1 MBq, iv after 60 mins postinjection
Data set [13] has as its target T1, Amyloid-beta precursor protein (Homo sapiens, UniProt P05067). In words: biochemical.
Description: Displacement of [3H]PIB from amyloid beta (1 to 42) aggregates in Alzheimer's disease-human brain homogenate after 3 hrs by gamma counting
The next data set is described as follows: physchem. Particulars: octanol/PBS.
For data set [14], the species on record is Mus musculus. In words: Binding affinity to beta-amyloid plaque in wild type mouse brain after 3 mins by Thioflavin-S fluorescence-based confocal microscopy. The class given is tissue-based.
Data set [15] has as its target T1, Amyloid-beta precursor protein. In words: biochemical. The source holds these as a separate data set.
Description: Displacement of [125I]TZDM from amyloid beta (1 to 42) aggregates in Alzheimer's disease-human brain homogenate after 3 hrs by gamma counting
For data set [16], the species on record is Mus musculus. In words: Binding affinity to beta-amyloid plaque in APPswe/PS1deltaE9 double transgenic mouse brain after 3 mins by Thioflavin-S fluorescence-based confocal microscopy. The data set is classed as tissue-based.

One may read the fraction remaining as the share of the starting amount still present when the sample was taken. Broadly, the Ki is the dissociation constant of the complex between target and ligand, obtained from inhibition or displacement. A low value points to tighter binding. As usually defined, the logP is the decadic logarithm of the partition coefficient of the neutral form, usually between octanol and water.

Activity calls are given as the source filed them. No cut-off for these calls is given here.

T1 sequence (P05067 whole entry): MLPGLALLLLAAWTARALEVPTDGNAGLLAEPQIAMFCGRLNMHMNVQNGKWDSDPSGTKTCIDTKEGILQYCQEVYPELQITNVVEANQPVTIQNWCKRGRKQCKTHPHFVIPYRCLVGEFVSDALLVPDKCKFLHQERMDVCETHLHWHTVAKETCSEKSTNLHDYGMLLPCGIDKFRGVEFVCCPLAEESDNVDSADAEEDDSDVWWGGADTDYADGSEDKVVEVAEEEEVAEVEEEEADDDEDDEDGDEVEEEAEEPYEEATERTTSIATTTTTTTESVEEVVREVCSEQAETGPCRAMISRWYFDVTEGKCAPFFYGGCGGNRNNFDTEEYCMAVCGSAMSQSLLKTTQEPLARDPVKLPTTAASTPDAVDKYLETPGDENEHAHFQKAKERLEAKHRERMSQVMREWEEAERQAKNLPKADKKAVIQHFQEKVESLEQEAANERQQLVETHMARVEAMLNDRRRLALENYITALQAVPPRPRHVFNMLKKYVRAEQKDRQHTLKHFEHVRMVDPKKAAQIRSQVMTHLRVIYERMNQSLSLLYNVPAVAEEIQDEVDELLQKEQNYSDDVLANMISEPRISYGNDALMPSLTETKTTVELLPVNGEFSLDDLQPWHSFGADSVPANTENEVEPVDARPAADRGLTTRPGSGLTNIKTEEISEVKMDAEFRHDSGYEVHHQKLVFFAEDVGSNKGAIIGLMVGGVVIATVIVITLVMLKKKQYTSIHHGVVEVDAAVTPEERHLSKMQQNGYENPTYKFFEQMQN
Description for in vitro: Metabolic stability in human serum assessed as compound remaining at 3.7 MBq after 120 mins by radio-TLC
Description for physchem: Octanol-PBS partition coefficient, log P of the compound by gamma counter

On to `CN(C)c1ccc(-c2nc3ccc([18F])cc3s2)cc1`, for which the Drug uptake in the data set on Blood [1] is given as 1.02 % ID/g; with Blood [2], 1.04 % ID/g; in the data set with Blood [3] it was 1.55 % ID/g; in the data set with Cerebellum [4], 1.16 % ID/g; in the data set on Cerebellum [5], 2.03 % ID/g; in the data set with Cerebellum [6], 4.45 % ID/g. Further, the Drug uptake came out at 4.39 % ID/g in the data set on Cortex [7]; 2.17 % ID/g with Cortex [8]; 4.26 % ID/g in the data set with Brain [9]; 1.61 % ID/g in the data set with Cortex [10]; 2.8 % ID/g with Brain [11]; 2.01 % ID/g with Brain [12]. The compound also registered an amount remaining at 2 h, 3.7 MBq in the data set “in vitro” of 90%.

In the case of `CNc1ccc(-c2nc3ccc([18F])cc3s2)cc1`, the Drug uptake in the data set on Blood [1] amounted to 1.11 % ID/g; in the data set on Blood [2], 1.13 % ID/g; in the data set with Blood [3], 2.08 % ID/g; in the data set on Cerebellum [4], 0.98 % ID/g; in the data set on Cerebellum [5], 1.38 % ID/g; in the data set on Cerebellum [6] it was 6.24 % ID/g. In addition, the Drug uptake was determined as 6.62 % ID/g in the data set with Cortex [7]; 1.2 % ID/g in the data set on Cortex [8]; 6.3 % ID/g in the data set with Brain [9]; 0.73 % ID/g in the data set with Cortex [10]; 1.91 % ID/g in the data set with Brain [11]; 1.32 % ID/g in the data set with Brain [12]. The same compound gave an amount remaining at 2 h, 3.7 MBq in the data set “in vitro” of 90%.

As to `CNc1ccc(-c2nc3ccc(F)cc3s2)cc1`, the Ki in [13] amounted to 0.2 nM; in data set [15], 5.5 nM. The same compound registered a logP in “physchem” of 3.2. Moreover, the result in the data set listed under Mus musculus [14] and in the data set listed under Mus musculus [16] was Active.

As for `CN(C)c1ccc(-c2nc3ccc(F)cc3s2)cc1`, the Ki in data set [13] was found to be 0.3 nM; in data set [15], 5.9 nM. Also, the logP in the data set “physchem” was 3.6.
